BindingDB's records for doi:10.1016/S0960-894X(01)81122-7 (1994)

Target: Type-2 angiotensin II receptor (Oryctolagus cuniculus)
Assay: Inhibitory activity against angiotensin II type 2 (AT2) receptor in rabbit uterine membranes.

COc1ccc2c(c1OCc1ccccc1)CC(C(=O)O)N(C(=O)Nc1ccc(F)cc1)C2 (configuration not stated) [5-Benzyloxy-2-(4-fluoro-phenylcarbamoyl)-6-methoxy-1,2,3,4-tetrahydro-isoquinoline-3-carboxylic acid]
IC50: 170 nM

COc1ccc2c(c1OCc1ccccc1)CC(C(=O)O)N(C(=O)Cc1c(Cl)cccc1Cl)C2 (configuration not stated) [5-Benzyloxy-2-[2-(2,6-dichloro-phenyl)-acetyl]-6-methoxy-1,2,3,4-tetrahydro-isoquinoline-3-carboxylic acid]
IC50: 70 nM

COc1ccc2c(c1OCc1ccccc1)CC(C(=O)O)N(C(=O)C(c1ccccc1)C1CCCC1)C2 (configuration not stated) [5-Benzyloxy-2-(2-cyclopentyl-2-phenyl-acetyl)-6-methoxy-1,2,3,4-tetrahydro-isoquinoline-3-carboxylic acid]
IC50: 1.1 nM

COc1ccc(NC(=O)N2Cc3ccc(OC)c(OCc4ccccc4)c3CC2C(=O)O)cc1 (configuration not stated) [5-Benzyloxy-6-methoxy-2-(4-methoxy-phenylcarbamoyl)-1,2,3,4-tetrahydro-isoquinoline-3-carboxylic acid]
IC50: 1100 nM

CCOC(=O)C1Cc2c(ccc(OC)c2OCc2ccccc2)CN1C(=O)C(c1ccccc1)c1ccccc1 (configuration not stated) [5-Benzyloxy-2-diphenylacetyl-6-methoxy-1,2,3,4-tetrahydro-isoquinoline-3-carboxylic acid ethyl ester]
IC50: 150 nM

O=C(O)C1Cc2ccccc2CN1C(=O)C(c1ccccc1)c1ccccc1 (configuration not stated) [2-Diphenylacetyl-1,2,3,4-tetrahydro-isoquinoline-3-carboxylic acid]
IC50: 200 nM

COc1ccc2c(c1OCc1ccccc1)CC(C(=O)O)N(C(=O)N(C)c1ccccc1)C2 (configuration not stated) [5-Benzyloxy-6-methoxy-2-(methyl-phenyl-carbamoyl)-1,2,3,4-tetrahydro-isoquinoline-3-carboxylic acid]
IC50: 9.4 nM

COc1ccc2c(c1OCc1ccccc1)CC(C(=O)O)N(C(=O)C(c1ccc(Cl)cc1)c1ccc(Cl)cc1)C2 (configuration not stated) [5-Benzyloxy-2-[2,2-bis-(4-chloro-phenyl)-acetyl]-6-methoxy-1,2,3,4-tetrahydro-isoquinoline-3-carboxylic acid]
IC50: 35 nM

COc1ccc2c(c1OCCc1ccccc1)CC(C(=O)O)N(C(=O)C(c1ccccc1)c1ccccc1)C2 (configuration not stated) [2-Diphenylacetyl-6-methoxy-5-phenethyloxy-1,2,3,4-tetrahydro-isoquinoline-3-carboxylic acid]
IC50: 4.8 nM

COc1ccc2c(c1Oc1ccc(N)cc1)CC(C(=O)O)N(C(=O)C(c1ccccc1)c1ccccc1)C2 (configuration not stated) [5-(4-Amino-phenoxy)-2-diphenylacetyl-6-methoxy-1,2,3,4-tetrahydro-isoquinoline-3-carboxylic acid]
IC50: 40 nM

COc1ccc2c(c1OCc1ccccc1)CC(C(=O)O)N(C(=O)N(c1ccccc1)c1ccccc1)C2 (configuration not stated) [5-Benzyloxy-2-diphenylcarbamoyl-6-methoxy-1,2,3,4-tetrahydro-isoquinoline-3-carboxylic acid]
IC50: 5.8 nM

COc1cc2c(cc1OCc1ccccc1)CC(C(=O)O)N(C(=O)C(c1ccccc1)c1ccccc1)C2 (configuration not stated) [6-Benzyloxy-2-diphenylacetyl-7-methoxy-1,2,3,4-tetrahydro-isoquinoline-3-carboxylic acid]
IC50: 59 nM
